Assay results: patent US9593149B2, “Amylin and calcitonin receptor agonist” (Novo Nordisk A/S, priority 2014, dated 2017)
Converted amounts (≈) assume the structure as drawn. Peptide text beside a SMILES is read from it. * marks the point of attachment. C20 diacid = O=C(O)CCCCCCCCCCCCCCCCCCC(=O)*

What was measured:
[1] = molecular target: T1, human amylin 3(a) receptor (human calcitonin receptor + RAMP-3), BHK570 cells (Homo sapiens, UniProt O60896+P30988); assay: Assay (II)a functional CRE-luciferase assay with albumin, human amylin receptor; format: cell-based; settings: Tested with HSA; read-out: hAmylin-R funct. EC50
T1 construct: host or cells: BHK570
T1 sequence (O60896 24-148, one chain of several): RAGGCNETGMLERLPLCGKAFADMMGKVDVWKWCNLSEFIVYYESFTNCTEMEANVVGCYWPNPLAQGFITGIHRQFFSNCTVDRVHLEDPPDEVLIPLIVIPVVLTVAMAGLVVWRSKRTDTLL
Description: (§1) Assay(II)a—Human Calcitonin and Amylin Receptor Assay
(§2) 1. Luciferase Assay Outline
(§3) Activation of calcitonin and amylin (co-expression of calcitonin receptor and receptor activity modifying proteins (RAMP)) receptors lead to increased intracellular concentrations of cAMP. Consequently, transcription is activated by promoters containing multiple copies of the cAMP response element (CRE). It is thus possible to measure amylin activity by the use of a CRE luciferase reporter gene introduced into BHK cells also expressing calcitonin or amylin receptors.
(§4) 2. Construction of Calcitonin (a)—and Amylin 3(a)—Receptor/CRE-Luc Cell Line.
(§5) A BHK570 cell line was stably transfected with the human calcitonin receptor and a CRE-responsive luciferase reporter gene. The cell line was further transfected with RAMP-3, using standard methods. This turns the calcitonin receptor into an amylin 3(a) receptor. Methotrexate, Neomycin, and Hygromycin are selection markers for luciferase, the calcitonin receptor, and RAMP-3, respectively.
(§6) To perform activity assays, BHK calcitonin (a) receptor- or amylin 3(a)-receptor/CRE-luc cells were seeded in white 96 well culture plates at a density of about 20.000 cells/well. […] After incubation overnight at 37° C. and 5% CO2, the growth medium was replaced by 50 μl/well assay medium (DMEM (without phenol red), Glutamax™, 10% FBS, and 10 mM Hepes, pH 7.4). Further, 50 μl/well of standard or sample in assay buffer were added.
(§7) After 3 hours incubation at 37° C. and 5% CO2, the assay medium with standard or sample were removed and replaced by 100 μl/well PBS. Further, 100 μl/well LucLite™ was added. The plates were sealed and incubated at room temperature for 30 minutes. Finally, luminescence was tested on a TopCounter (Packard) in SPC (single photon counting) mode.

[2] = molecular target: T1, human amylin 3(a) receptor (human calcitonin receptor + RAMP-3), BHK570 cells; assay: Assay (II)b functional CRE-luciferase assay without albumin, human amylin receptor; format: cell-based; settings: Tested without HSA; read-out: hAmylin-R funct. EC50
In short: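 Agonism measured as CRE-driven luciferase luminescence after 3 h sample exposure at 37 °C, without albumin (0.1% ovalbumin, Hepes pH 7.4 medium). Reporter cells: BHK570 carrying human calcitonin receptor, co-transfected with RAMP-3 to form the amylin 3(a) receptor.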

[3] = molecular target: T2, human calcitonin (a) receptor, BHK570 cells (Homo sapiens, UniProt P30988); assay: Assay (II)b functional CRE-luciferase assay without albumin, human calcitonin receptor; format: cell-based; settings: Tested without HSA; read-out: hCTR funct. EC50
T2 construct: host or cells: BHK570
T2 sequence (P30988 25-474): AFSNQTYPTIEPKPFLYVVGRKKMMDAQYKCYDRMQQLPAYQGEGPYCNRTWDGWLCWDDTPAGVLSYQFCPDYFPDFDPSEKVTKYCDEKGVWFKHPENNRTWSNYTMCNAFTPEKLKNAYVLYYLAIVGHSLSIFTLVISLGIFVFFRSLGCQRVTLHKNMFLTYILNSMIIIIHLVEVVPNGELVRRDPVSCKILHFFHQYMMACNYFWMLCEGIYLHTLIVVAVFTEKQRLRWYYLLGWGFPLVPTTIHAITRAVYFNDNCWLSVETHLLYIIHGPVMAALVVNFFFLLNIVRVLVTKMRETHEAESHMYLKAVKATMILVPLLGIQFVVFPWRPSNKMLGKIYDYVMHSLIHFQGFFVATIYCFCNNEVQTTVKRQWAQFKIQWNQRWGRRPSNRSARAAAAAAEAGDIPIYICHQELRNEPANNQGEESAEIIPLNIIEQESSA
In short: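 BHK570 cells stably expressing human calcitonin receptor with CRE-luciferase reporter, plus RAMP-3 for the amylin 3(a) line. Cells stimulated 3 hours at 37 °C in albumin-free assay medium (0.1% ovalbumin, 10 mM Hepes pH 7.4); cAMP-driven luciferase read by luminescence.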

[4] = Assay (IV) determination of solubility; format: physicochemical
Protocol: Assay (IV)—Determination of Solubility
The mimylin peptide was dissolved in water at ˜500 nmol/ml and mixed 1:1 with a series of buffers (100 mM glycylglycine pH 3.0, 100 mM glycylglycine pH 4.0, 100 mM glycylglycine pH 5.0, 100 mM bistrispropane pH 6.0, 100 mM bistrispropane pH 6.5, 100 mM bistrispropane pH 7.0, 100 mM bistrispropane pH 7.5, 100 mM bistrispropane pH 8.0).

[5] = molecular target: T3, human calcitonin receptor (Homo sapiens, UniProt P30988); assay: Assay (VII) binding to the human calcitonin receptor (membrane, SPA); settings: membranes, 125I-Calcitonin; read-out: hCT-R binding IC50
T3 construct: expressed in transfected cells; host or cells: BHK tk'ts 13
T3 sequence (P30988 25-474): T2 sequence (P30988 25-474)
Protocol: Assay (VII)—Determination of Binding to the Human Calcitonin Receptor (Membrane)
The binding assay was performed using scintillation proximity assay (SPA) beads (RPNQ0001) from PerkinElmer® and cell membranes prepared from a BHK tk'ts 13 cell line was stably transfected with the human calcitonin receptor and a CRE-responsive luciferase reporter gene. Membranes were prepared in the following way; the cells were rinsed with PBS and incubated with Versene for approximately 5 min before harvesting. The cells were flushed with PBS and the cell-suspension was centrifuged for 5 min at 1000 rpm. Cells were homogenized in a buffer containing 20 mM Na-HEPES and 10 mM EDTA (pH 7.4) and centrifuged at 20.000 rpm for 15 min. The resulting pellet was resuspended, homogenized and centrifuged (20.000 rpm, 15 min) in a buffer containing 20 mM Na-HEPES and 0.1 mM EDTA (pH 7.4, buffer 2). The resulting pellet was resuspended in buffer 2 and protein concentration was tested (BCA protein Assay, Pierce). The homogenate was kept cold during the whole procedure. The membranes were kept at −80° C. until use. Assay was performed in a 384 well Optiplate (PerkinElmer®) in a total volume of 40 ul. Membranes were mixed with SPA beads. Final concentration of membranes 35 ng/μL final and Final concentration of SPA beads was 0.05 mg/well. Test-compounds were dissolved in DMSO and further diluted in assay buffer (50 mM Hepes, pH 7.4, 1 mM CaCl2, 5 mM MgCl2, 0.1% OA and 0.02% Tween20). Radioligand ^125I-Calcitonin was dissolved in assay buffer and added to the Optiplate at a final concentration of 75 pM/well (approx. 30.000 cpm/10 ul). The final mixture was incubated for 120 min with shaking at 400 rpm at 25° C. prior to centrifugation (1500 rpm, 10 min). Samples were analyzed on TopCounter™ (Packard). The IC50 was calculated using (one site binding competition analysis) GraphPad Prism5 as a measure of receptor affinity.

[6] = molecular target: T2, human calcitonin (a) receptor, BHK570 cells; assay: Assay (II)a functional CRE-luciferase assay with albumin, human calcitonin receptor; format: cell-based; settings: Tested with HSA; read-out: hCTR funct. EC50
Description: as §1, §2, §3, §4, §5, §6, §7

[7] = molecular target: T4, human amylin receptor (human calcitonin receptor + human RAMP3), BHK tk'ts 13 cells (Homo sapiens, UniProt O60896+P30988); assay: Assay (Va) binding to the human amylin receptor (whole cell); settings: read-out: hAmylin-R binding IC50
T4 construct: expressed in transfected cells; host or cells: BHK tk'ts 13
T4 sequence (O60896 24-148, one chain of several): as the sequence (O60896 24-148, one chain of several) above
Protocol: The day before the assay the cells were Seeded into Poly-D-Lysin coated 384W Opaque White, BD BioCoat plates (10000 cells/well) and Incubated overnight at 37° C., 5% CO2, 95% humidity.

Row | EC50 [1] [pM] | EC50 [2] [pM] | EC50 [3] [pM] | solubility at 18 h ([4]; bistrispropane buffer, pH 6.5) [µM] | solubility at 18 h ([4]; bistrispropane buffer, pH 7.5) [µM] | solubility at 18 h ([4]; bistrispropane buffer, pH 6.0) [µM] | solubility at 18 h ([4]; bistrispropane buffer, pH 7.0) [µM] | solubility at 18 h ([4]; bistrispropane buffer, pH 8.0) [µM] | solubility at 18 h ([4]; glycylglycine buffer, pH 3.0) [µM] | solubility at 18 h ([4]; glycylglycine buffer, pH 4.0) [µM] | solubility at 18 h ([4]; glycylglycine buffer, pH 5.0) [µM] | IC50 [5] [pM] | EC50 [6] [pM] | IC50 [7] [pM] | SMILES
1 | 164 | 53 | 30 | ≥ 200 | ≥ 200 | ≥ 200 | ≥ 200 | ≥ 200 | ≥ 200 | ≥ 200 | ≥ 200 | 70 | – | – | CC(=O)N[C@@H](C)C(=O)N[C@@H](CO)C(=O)N[C@@H](CCC(=O)O)C(=O)N[C@@H](CC(C)C)C(=O)N[C@@H](CO)C(=O)N[C@H](C(=O)N[C@@H](C)C(=O)N[C@@H](C)C(=O)N[C@@H](CC(C)C)C(=O)NCC(=O)N[C@@H](CCCNC(=N)N)C(=O)N[C@@H](CC(C)C)C(=O)N[C@@H](CO)C(=O)N[C@@H](C)C(=O)N[C@@H](CCC(=O)O)C(=O)N[C@@H](CC(C)C)C(=O)N[C@@H](Cc1c[nH]cn1)C(=O)N[C@@H](CCC(=O)O)C(=O)N[C@@H](CC(C)C)C(=O)N[C@@H](C)C(=O)N[C@H](C(=O)N[C@@H](CC(C)C)C(=O)N1CCC[C@H]1C(=O)N[C@@H](CCCNC(=N)N)C(=O)N[C@H](C(=O)N[C@@H](CCCCNC(=O)CC[C@H](NC(=O)CCCCCCCCCCCCCCCCCCC(=O)O)C(=O)O)C(=O)N[C@H](C(=O)NCC(=O)N[C@@H](CO)C(=O)NCC(=O)N[C@@H](CO)C(=O)N1CCC[C@H]1C(N)=O)[C@@H](C)O)[C@@H](C)O)[C@@H](C)O)[C@@H](C)O [compound 71, [N-terminal(acetyl), des1, 27K(C20 diacid-gGlu), 30S, 31G]mimylin]
2 | 52 | 22 | 24 | 1 (≈ 3.72 µg/mL) | – | – | – | – | ≥ 200 | 1 (≈ 3.72 µg/mL) | 2 (≈ 7.44 µg/mL) | – | 49 | 222 | CC(C)C[C@H](NC(=O)CNC(=O)[C@H](CO)NC(=O)[C@H](C)NC(=O)CCCCCCCCCCCCCCCCCCC(=O)O)C(=O)N[C@@H](CO)C(=O)N[C@H](C(=O)N[C@@H](C)C(=O)N[C@@H](C)C(=O)N[C@@H](CC(C)C)C(=O)NCC(=O)N[C@@H](CCCNC(=N)N)C(=O)N[C@@H](CC(C)C)C(=O)N[C@@H](CO)C(=O)N[C@@H](CCC(N)=O)C(=O)N[C@@H](CCC(=O)O)C(=O)N[C@@H](CC(C)C)C(=O)N[C@@H](Cc1c[nH]cn1)C(=O)N[C@@H](CCC(=O)O)C(=O)N[C@@H](CC(C)C)C(=O)N[C@@H](CCC(N)=O)C(=O)N[C@H](C(=O)N[C@@H](Cc1ccc(O)cc1)C(=O)N1CCC[C@H]1C(=O)N[C@@H](CCCNC(=N)N)C(=O)N[C@H](C(=O)N[C@@H](CCC(=O)O)C(=O)N[C@H](C(=O)NCC(=O)N[C@@H](CO)C(=O)NCC(=O)N[C@H](C(=O)N[C@@H](Cc1ccc(O)cc1)C(N)=O)[C@@H](C)O)[C@@H](C)O)[C@@H](C)O)[C@@H](C)O)[C@@H](C)O [compound 111, [N-terminal(C20 diacid), des1, 4G, 15Q, 21Q, 23Y, 30S, 31G, 32T, 33Y]mimylin] ({C20 diacid}-ASGLSTAALGRLSQELHELQTYPRTETGSGTY-NH2)
